Measurements as given in PMC10590056, “Design and synthesis of cabotegravir derivatives bearing 1,2,3-triazole and evaluation of anti-liver cancer activity” (Frontiers in Pharmacology, 2023).
Values joined by “and” are separate entries in the source; they are usually repeats but may differ in a detail not shown here. Identical values can stand only once. Like-named read-outs stand apart in the source and are kept apart here.

Experiments:
Format in all cases: cell-based
[1] = tested on: HepG2 cells; test: MTT assay for cell proliferation and cytotoxicity, HepG2; set-up: key to Inhibitory rate: inhibition rate = 1 - mean A490 sample/mean A490 control (fraction)
Procedure, shortened: (§1)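 Proliferation read-out is MTT reduction (4 h) after 48 h treatment with KJ-5 or KJ-12 across 0, 1, 2, 4, 8, 16 and 32 μM. Cultures in 10% FBS DMEM, 37 °C, plated at 10^5 cells/mL; A490 of DMSO-dissolved formazan compared with untreated control.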

[2] = tested on: HeLa cells; test: MTT assay for cell proliferation, HeLa; set-up: key to Inhibitory rate: inhibition rate = 1 - mean A490 sample/mean A490 control (fraction)
Procedure, shortened: as §1

[3] = tested on: KYSE-30 cells; test: MTT assay for cell proliferation, KYSE-30; set-up: key to Inhibitory rate: inhibition rate = 1 - mean A490 sample/mean A490 control (fraction)
Procedure, shortened: as §1

[4] = tested on: normal hepatic cells L02; test: MTT inhibition rate in normal hepatic cells L02; conditions: for Average OD / Inhibitory rate / ODtreated/ODcontrol: L02 cells, 3 repeat experiments; for Average OD: average of 5 wells; for Inhibitory rate / ODtreated/ODcontrol: fraction
[5] = tested on: HepG2 cells; test: DAPI staining for cell apoptosis (morphology); conditions: HepG2, 2, 4, 8 μM, 24 h
Procedure: Apoptotic morphological changes were determined by DAPI staining. HepG2 cells were seeded in a 48-well plate and treated with different concentrations of KJ-5 and KJ-12 (2, 4, and 8 μM) for 24 h. After 24 h, they were then washed with PBS and fixed with 4% paraformaldehyde for 20 min. Subsequently, they were then washed with PBS and treated with DAPI (10 μg/mL) at 37°C for 5 min. After washing with PBS, the cells were resuspended in PBS for the rest of the experiment. A fluorescence microscope was used to observe the apoptotic morphological changes.

[6] = tested on: HepG2 cells; test: Transwell migration assay (without Matrigel); conditions: HepG2, 24 h treatment, vs control
Procedure: HepG2 cells were treated with either KJ-5 or KJ-12 for 24 h. Then, the cells were suspended and seeded into the upper chamber of a 24-well Transwell plate (Corning Inc., United States) in serum-free medium. The cells were cultured for 24 h at 37°C; a medium containing 20% FBS as a chemoattractant was added to the lower chamber. HepG2 cells that had invaded through the membrane were fixed with 4% paraformaldehyde for 20 min and stained with 0.1% crystal violet. Five random fields were then imaged and quantified using an inverted fluorescence microscope (Axio Observer3, Germany). To assess invasion, transwell assays were performed in a similar manner, with the exception of coating the upper chamber of the Transwell with 100 μL of diluted Matrigel solution per well.

[7] = HepG2, fraction, per experiment

How did the Inhibitory rate [1, 7] turn out when `COc1c2n(cc(C(=O)Nc3cccc(-c4cn(-c5c(C)cc(C)cc5C)nn4)c3)c1=O)C[C@H]1OC[C@H](C)N1C2=O` [KJ-12] was run?
The Inhibitory rate was 0.742 and 0.7786 and 0.787.

What about the ODtreated/ODcontrol [1, 7] of the same molecule?
Its ODtreated/ODcontrol is 0.258 and 0.2214 and 0.213.

And the inhibition at 4 µM ([1]; Homo sapiens, HepG2, liver cancer cells, 4 μM, read-out: Inhibition rate on liver cancer cells)?
The inhibition at 4 µM was ~50%.

What about the IC50 ([1]; Homo sapiens, HepG2, 48 h, MTT) of the same molecule?
The IC50 was 4.07 ± 0.09 µM.

And the inhibition at 16 µM ([1]; Homo sapiens, preliminary screening, HepG2, 16 μM, 48 h, mean±SD, unit inferred, read-out: Inhibition rate (16μM), 48 h, HepG2)?
Its inhibition at 16 µM is 76.9 ± 2.4%.

And the Inhibitory rate ([2]; Hela, group 1 (concentration), fraction, single experiments)?
The Inhibitory rate was 0.2971 and 0.2883 and 0.2551.

And the ODtreated/ODcontrol ([2]; Hela, group 1 (concentration), single experiments)?
The ODtreated/ODcontrol was 0.7029 and 0.7117 and 0.7449.

And the Inhibitory rate ([2]; Hela, group 2 (concentration), fraction, single experiments)?
The Inhibitory rate was 0.3155 and 0.3221 and 0.3198.

What about the ODtreated/ODcontrol ([2]; Hela, group 2 (concentration), single experiments) of the same molecule?
The ODtreated/ODcontrol was 0.6845 and 0.6779 and 0.6802.

What about the Inhibitory rate ([2]; Hela, group 4 (concentration), fraction, single experiments) of the same molecule?
The Inhibitory rate was 0.3594 and 0.3533 and 0.3688.

What about the ODtreated/ODcontrol ([2]; Hela, group 4 (concentration), single experiments) of the same molecule?
The ODtreated/ODcontrol was 0.6406 and 0.6467 and 0.6312.

And the Inhibitory rate ([2]; Hela, group 8 (concentration), fraction, single experiments)?
Its Inhibitory rate is 0.7153 and 0.627 and 0.5661.

And the ODtreated/ODcontrol ([2]; Hela, group 8 (concentration), single experiments)?
The ODtreated/ODcontrol was 0.2847 and 0.373 and 0.4339.

And the Inhibitory rate ([2]; Hela, group 16 (concentration), fraction, single experiments)?
The Inhibitory rate was 0.7226 and 0.7292 and 0.7302.

And the ODtreated/ODcontrol ([2]; Hela, group 16 (concentration), single experiments)?
Its ODtreated/ODcontrol is 0.2774 and 0.2708 and 0.2698.

And the Inhibitory rate ([2]; Hela, group 32 (concentration), fraction, single experiments)?
The Inhibitory rate was 0.7312 and 0.7755 and 0.8162.

What about the ODtreated/ODcontrol ([2]; Hela, group 32 (concentration), single experiments) of the same molecule?
The ODtreated/ODcontrol was 0.2688 and 0.2245 and 0.1838.

What about the IC50 ([2]; Hela, one of three experiments, unit inferred, read-out: IC50, single experiment, Hela) of the same molecule?
Its IC50 is 5.49 µM and 4.82 µM.

What about the Inhibitory rate ([2]; Hela, fraction, per experiment) of the same molecule?
The Inhibitory rate was 0.7218 and 0.7353 and 0.6986.

What about the ODtreated/ODcontrol ([2]; Hela, fraction, per experiment) of the same molecule?
The ODtreated/ODcontrol was 0.2782 and 0.2647 and 0.3014.

What about the IC50 ([2]; Homo sapiens, HeLa, 48 h, HeLa, 48 h, MTT, read-out: IC50 HeLa) of the same molecule?
The IC50 was 5.17 ± 0.34 µM.

And the IC50 ([2]; Homo sapiens, HeLa, one of three experiments, unit inferred, read-out: IC50, single experiment, Hela)?
The IC50 was 5.19 µM.

What about the inhibition at 16 µM ([2]; Homo sapiens, preliminary screening, Hela, 16 μM, 48 h, mean±SD, unit inferred, read-out: Inhibition rate (16μM), 48 h, Hela) of the same molecule?
The inhibition at 16 µM was 71.9 ± 1.86%.

And the IC50 ([3]; Homo sapiens, KYSE-30, 48 h, MTT, read-out: IC50 KYSE-30)?
Its IC50 is 11.7 ± 0.21 µM.

And the IC50 ([3]; Homo sapiens, KYSE-30, KYSE-30, one of three experiments, unit inferred, read-out: IC50, single experiment, KYSE-30)?
The IC50 was 11.8 µM.

And the inhibition at 16 µM ([3]; Homo sapiens, preliminary screening, KYSE-30, 16 μM, 48 h, mean±SD, unit inferred, read-out: Inhibition rate (16μM), 48 h, KYSE-30)?
Its inhibition at 16 µM is 56.1 ± 4.59%.

And the ODtreated/ODcontrol ([3]; KYSE-30, first of three experiments)?
The ODtreated/ODcontrol was 0.4595.

And the Inhibitory rate ([3]; KYSE-30, given as fraction, first of three experiments)?
The Inhibitory rate was 0.5405.

What about the Inhibitory rate ([3]; KYSE-30, given as fraction, second of three experiments) of the same molecule?
Its Inhibitory rate is 0.5295.

And the Inhibitory rate ([3]; KYSE-30, given as fraction, third of three experiments)?
The Inhibitory rate was 0.614.

What about the Inhibitory rate ([3]; KYSE-30, group 1 (concentration), fraction, single experiments) of the same molecule?
Its Inhibitory rate is 0.1337 and 0.126 and 0.1387.

What about the ODtreated/ODcontrol ([3]; KYSE-30, group 1 (concentration), single experiments) of the same molecule?
Its ODtreated/ODcontrol is 0.8663 and 0.874 and 0.8613.

What about the Inhibitory rate ([3]; KYSE-30, group 2 (concentration), fraction, single experiments) of the same molecule?
Its Inhibitory rate is 0.1741 and 0.1797 and 0.2087.

What about the ODtreated/ODcontrol ([3]; KYSE-30, group 2 (concentration), single experiments) of the same molecule?
The ODtreated/ODcontrol was 0.8259 and 0.8203 and 0.7913.

What about the Inhibitory rate ([3]; KYSE-30, group 4 (concentration), fraction, single experiments) of the same molecule?
The Inhibitory rate was 0.2947 and 0.287 and 0.2904.

And the ODtreated/ODcontrol ([3]; KYSE-30, group 4 (concentration), single experiments)?
The ODtreated/ODcontrol was 0.7053 and 0.713 and 0.7096.

What about the Inhibitory rate ([3]; KYSE-30, group 8 (concentration), fraction, single experiments) of the same molecule?
The Inhibitory rate was 0.4545 and 0.4401 and 0.4294.

And the ODtreated/ODcontrol ([3]; KYSE-30, group 8 (concentration), single experiments)?
The ODtreated/ODcontrol was 0.5455 and 0.5599 and 0.5706.

What about the Inhibitory rate ([3]; KYSE-30, group 16 (concentration), fraction, single experiments) of the same molecule?
Its Inhibitory rate is 0.517 and 0.5136 and 0.5274.

And the ODtreated/ODcontrol ([3]; KYSE-30, group 16 (concentration), single experiments)?
The ODtreated/ODcontrol was 0.483 and 0.4864 and 0.4726.

And the Inhibitory rate ([3]; KYSE-30, group 32 (concentration), fraction, single experiments)?
The Inhibitory rate was 0.7126 and 0.7246 and 0.731.

What about the ODtreated/ODcontrol ([3]; KYSE-30, group 32 (concentration), single experiments) of the same molecule?
Its ODtreated/ODcontrol is 0.2874 and 0.2754 and 0.269.

And the IC50 ([3]; KYSE-30, one of three experiments, unit inferred, read-out: IC50, single experiment, KYSE-30)?
Its IC50 is 11.9 µM and 11.5 µM.

What about the ODtreated/ODcontrol ([3]; KYSE-30, second of three experiments) of the same molecule?
The ODtreated/ODcontrol was 0.4705.

And the ODtreated/ODcontrol ([3]; KYSE-30, third of three experiments)?
The ODtreated/ODcontrol was 0.386.

What about the inhibition at 1 µM ([4]; Homo sapiens, L02, 48 h, L02, 1 μM, 48 h) of the same molecule?
The inhibition at 1 µM was 10.8 ± 0.95%.

And the inhibition at 2 µM ([4]; Homo sapiens, L02, 48 h, L02, 2 μM, 48 h)?
Its inhibition at 2 µM is 13.6 ± 0.75%.

What about the inhibition at 4 µM ([4]; Homo sapiens, L02, 48 h, L02, 4 μM, 48 h) of the same molecule?
Its inhibition at 4 µM is < 20%.

And the inhibition at 8 µM ([4]; Homo sapiens, L02, 48 h, L02, 8 μM, 48 h)?
The inhibition at 8 µM was 22.3 ± 2.93%.

What about the inhibition at 16 µM ([4]; Homo sapiens, L02, 48 h, L02, 16 μM, 48 h) of the same molecule?
The inhibition at 16 µM was 30.5 ± 1.2%.

What about the “Average OD” value ([4]; Group 1) of the same molecule?
Its value is 1.123 and 1.0994 and 0.8196.

And the Inhibitory rate ([4]; Group 1)?
The Inhibitory rate was 0.1145 and 0.1117 and 0.09678.

And the ODtreated/ODcontrol ([4]; Group 1)?
The ODtreated/ODcontrol was 0.8855 and 0.8883 and 0.9032.

And the “Average OD” value ([4]; Group 2)?
The value was 1.1022 and 1.0518 and 0.793.

What about the Inhibitory rate ([4]; Group 2) of the same molecule?
The Inhibitory rate was 0.1433 and 0.1281 and 0.1359.

And the ODtreated/ODcontrol ([4]; Group 2)?
The ODtreated/ODcontrol was 0.8567 and 0.8719 and 0.8641.

And the “Average OD” value ([4]; Group 4)?
Its value is 1.0412 and 1.0106 and 0.783.

What about the Inhibitory rate ([4]; Group 4) of the same molecule?
The Inhibitory rate was 0.1541 and 0.1764 and 0.1697.

And the ODtreated/ODcontrol ([4]; Group 4)?
Its ODtreated/ODcontrol is 0.8459 and 0.8236 and 0.8303.

What about the “Average OD” value ([4]; Group 8) of the same molecule?
Its value is 1.0104 and 0.9056 and 0.7302.

What about the Inhibitory rate ([4]; Group 8) of the same molecule?
The Inhibitory rate was 0.2111 and 0.2008 and 0.256.

What about the ODtreated/ODcontrol ([4]; Group 8) of the same molecule?
Its ODtreated/ODcontrol is 0.7889 and 0.7992 and 0.744.

And the “Average OD” value ([4]; Group 16)?
The value was 0.8912 and 0.8512 and 0.6312.

What about the Inhibitory rate ([4]; Group 16) of the same molecule?
Its Inhibitory rate is 0.3181 and 0.295 and 0.3007.

What about the ODtreated/ODcontrol ([4]; Group 16) of the same molecule?
The ODtreated/ODcontrol was 0.6819 and 0.705 and 0.6993.

What about the “Average OD” value ([4]; Group 32) of the same molecule?
Its value is 0.7446 and 0.6962 and 0.5126.

What about the Inhibitory rate ([4]; Group 32) of the same molecule?
The Inhibitory rate was 0.4462 and 0.411 and 0.428.

And the ODtreated/ODcontrol ([4]; Group 32)?
The ODtreated/ODcontrol was 0.5538 and 0.589 and 0.572.

And the “Apoptotic morphological changes, DAPI staining” value [5]?
Its value is “cell shrinkage, nuclear condensation, and chromatin fragmentation”.

What about the “Migration of HepG2 cells (transwell without Matrigel)” value [6] of the same molecule?
The value was “significantly impaired”.
